This is an account of results in PubChem BioAssay AID220 (DTP/NCI, 2004).

“And” between values parts separate entries of the source, which are not always exact repeats. Equal entries are not always repeated. Records with an inconclusive call do not appear.

In this test the test system is CD8F1 mice, subcutaneous mammary adenocarcinoma, T/C%. Description: NCI In Vivo Anticancer Drug Screen. Data for tumor model Mammary Adenocarcinoma CD8F1 (subcutaneous) in CD8F1. To be noted: higher = larger tumour. The protocol:
The antitumor activity of compounds was measured in mice bearing transplantable tumors. Survival or tumor size were measured and the results are expressed as the measurement made in the treated group (T) divided by the measurement made in the vehicle treated control group (C). The tumor model used in this assay is Mammary Adenocarcinoma CD8F1 (subcutaneous) in CD8F1

[1] abbreviates: endpoint: median tumor weight change, dose: 50.0 mg/kg/injection, schedule: Q01DX001 (ip), vehicle: water.
[2] abbreviates: endpoint: median tumor weight change, dose: 100.0 mg/kg/injection, schedule: Q01DX001 (ip), vehicle: water.
Setting [3] is: endpoint: median tumor weight change, dose: 200.0 mg/kg/injection, schedule: Q01DX001 (ip), vehicle: water.
Where [4] appears, read: endpoint: median tumor weight change, dose: 400.0 mg/kg/injection, schedule: Q01DX001 (ip), vehicle: water.
Where [5] appears, read: endpoint: median tumor weight (est.), dose: 3.12 mg/kg/injection, schedule: Q07DX005 (ip), vehicle: saline.
Where [6] appears, read: endpoint: median tumor weight (est.), dose: 6.25 mg/kg/injection, schedule: Q07DX005 (ip), vehicle: saline.
[7] abbreviates: endpoint: median tumor weight (est.), dose: 12.5 mg/kg/injection, schedule: Q07DX005 (ip), vehicle: saline.
Where [8] appears, read: endpoint: median tumor weight (est.), dose: 50.0 mg/kg/injection, schedule: Q07DX005 (ip), vehicle: saline.

Take `COc1cccc2c1C(=O)c1c(O)c3c(c(O)c1C2=O)C[C@@](O)(/C(CO)=N/NC(=O)c1ccc(Cl)c(Cl)c1)C[C@@H]3OC1CC(N)C(O)C(C)O1` (some centres undefined): the T/C is 106 % of control (endpoint: mean tumor weight, dose: 0.75 mg/kg/injection, schedule: Q07DX005 (ip), vehicle: saline); 161 % of control (endpoint: mean tumor weight, dose: 1.5 mg/kg/injection, schedule: Q07DX005 (ip), vehicle: saline); 118 % of control (endpoint: mean tumor weight, dose: 1.5 mg/kg/injection, schedule: Q07DX006 (ip), vehicle: saline); 75 % of control (endpoint: mean tumor weight, dose: 3.0 mg/kg/injection, schedule: Q07DX005 (ip), vehicle: saline); 71 % of control (endpoint: mean tumor weight, dose: 3.0 mg/kg/injection, schedule: Q07DX006 (ip), vehicle: saline); 86 % of control (endpoint: mean tumor weight, dose: 4.0 mg/kg/injection, schedule: Q07DX004 (ip), vehicle: saline). In addition, the T/C runs as follows: (endpoint: mean tumor weight, dose: 8.0 mg/kg/injection, schedule: Q07DX004 (ip), vehicle: saline) 96 % of control; (endpoint: mean tumor weight, dose: 12.0 mg/kg/injection, schedule: Q07DX005 (ip), vehicle: saline) 30 % of control; (endpoint: mean tumor weight, dose: 12.0 mg/kg/injection, schedule: Q07DX006 (ip), vehicle: saline) 32 % of control; (endpoint: mean tumor weight, dose: 16.0 mg/kg/injection, schedule: Q07DX004 (ip), vehicle: saline) 17 % of control; (endpoint: median tumor weight (est.), dose: 2.0 mg/kg/injection, schedule: Q07DX005 (ip), vehicle: suspension in saline) 60 % of control; (endpoint: median tumor weight (est.), dose: 4.0 mg/kg/injection, schedule: Q07DX005 (ip), vehicle: suspension in saline) 150 % of control. In addition, the T/C runs as follows: (endpoint: median tumor weight (est.), dose: 8.0 mg/kg/injection, schedule: Q07DX005 (ip), vehicle: suspension in saline) 41 % of control; (endpoint: median tumor weight (est.), dose: 16.0 mg/kg/injection, schedule: Q07DX005 (ip), vehicle: suspension in saline) 25 % of control.

As to `Cn1c2nc(=O)n(-c3ccccc3)c(=O)c-2nc2c1CCCC2`, the T/C (endpoint: median tumor weight (est.), dose: 12.5 mg/kg/injection, schedule: Q07DX005 (ip), vehicle: saline with Tween-80) is 90 % of control; the T/C (endpoint: median tumor weight (est.), dose: 25.0 mg/kg/injection, schedule: Q07DX005 (ip), vehicle: saline with Tween-80) was 108 % of control; the T/C (endpoint: median tumor weight (est.), dose: 50.0 mg/kg/injection, schedule: Q07DX005 (ip), vehicle: saline with Tween-80) was 119 % of control; the T/C (endpoint: median tumor weight (est.), dose: 100.0 mg/kg/injection, schedule: Q07DX005 (ip), vehicle: saline with Tween-80) is 100 % of control.

With `O=NN(CCCl)C(=O)NC1[C@H](O)CCC[C@@H]1O` (some centres undefined), the T/C was 71 % of control and 73 % of control (endpoint: median tumor weight change, dose: 6.25 mg/kg/injection, schedule: Q01DX001 (ip), vehicle: saline); 15 % of control and 17 % of control (endpoint: median tumor weight change, dose: 12.5 mg/kg/injection, schedule: Q01DX001 (ip), vehicle: saline); 6 % of control (endpoint: median tumor weight change, dose: 25.0 mg/kg/injection, schedule: Q01DX001 (ip), vehicle: saline).

In the case of `NC(=O)c1c[se]c(C2OC(CO)C(O)C2O)n1` (centres undefined), the T/C runs as follows: under setting [1], 124 % of control; (endpoint: median tumor weight change, dose: 75.0 mg/kg/injection, schedule: Q01DX001 (ip), vehicle: water) 45 % of control; under setting [2], 83 % of control; (endpoint: median tumor weight change, dose: 150.0 mg/kg/injection, schedule: Q01DX001 (ip), vehicle: water) 73 % of control; under setting [3], 89 % of control; (endpoint: median tumor weight change, dose: 300.0 mg/kg/injection, schedule: Q01DX001 (ip), vehicle: water) 47 % of control. In addition, the T/C reads like this: under setting [4], 95 % of control; (endpoint: median tumor weight change, dose: 600.0 mg/kg/injection, schedule: Q01DX001 (ip), vehicle: water) 43 % of control; (endpoint: median tumor weight change, dose: 1200.0 mg/kg/injection, schedule: Q01DX001 (ip), vehicle: water) 50 % of control.

Consider `OCCN1CCN(CCCN2c3ccccc3Sc3ccc(C(F)(F)F)cc32)CC1`, for which the T/C under setting [5] was 85 % of control and 109 % of control; the T/C under setting [6] is 107 % of control and 122 % of control; the T/C under setting [7] was 80 % of control and 83 % of control; the T/C under setting [8] is 47 % of control and 48 % of control.

For the compound `[Cl][Hg][Cl]`, the T/C was 87 % of control (endpoint: median tumor weight change, dose: 1.56 mg/kg/injection, schedule: Q01DX001 (ip), vehicle: saline) and 71 % of control (endpoint: median tumor weight change, dose: 3.12 mg/kg/injection, schedule: Q01DX001 (ip), vehicle: saline).

As to `COC(C(=O)C(O)C(C)O)C1CC2C=C3C=C(OC4CC(OC5CC(O)C(OC)C(C)O5)C(OC(C)=O)C(C)O4)C(C)C(=O)C3=C(O)C2=C(O)C1OC1CC(OC2CC(OC3CC(C)(O)C(OC(=O)C(C)C)C(C)O3)C(O)C(C)O2)C(O)C(C)O1` (centres undefined), the T/C runs as follows: (endpoint: median tumor weight (est.), dose: 25.0 micrograms/kg/injection, schedule: Q07DX005 (ip), vehicle: saline) 74 % of control; (endpoint: median tumor weight (est.), dose: 50.0 micrograms/kg/injection, schedule: Q07DX005 (ip), vehicle: saline) 78 % of control; (endpoint: median tumor weight (est.), dose: 100.0 micrograms/kg/injection, schedule: Q07DX005 (ip), vehicle: saline) 65 % of control; (endpoint: median tumor weight (est.), dose: 200.0 micrograms/kg/injection, schedule: Q07DX005 (ip), vehicle: saline) 48 % of control; (endpoint: median tumor weight (est.), dose: 400.0 micrograms/kg/injection, schedule: Q07DX005 (ip), vehicle: saline) 73 % of control.

On to `OC1OC2COC(c3ccccc3)OC2C(O)C1O` (centres undefined), for which the T/C runs as follows: under setting [1], 105 % of control; under setting [2], 80 % of control; under setting [3], 101 % of control; under setting [4], 59 % of control; (endpoint: median tumor weight change, dose: 800.0 mg/kg/injection, schedule: Q01DX001 (ip), vehicle: water) 62 % of control; (endpoint: median tumor weight change, dose: 1600.0 mg/kg/injection, schedule: Q01DX001 (ip), vehicle: water) 90 % of control.

Regarding `CC[C@@]1(O)C[C@H](OC2CC(N(C)C)C(OC3CC(O)C(OC4CC(O)C(O)C(C)O4)C(C)O3)C(C)O2)c2c(cc3c(c2O)C(=O)c2c(O)ccc(O)c2C3=O)[C@H]1C(=O)OC` (some centres undefined), the T/C reads like this: (endpoint: median tumor weight (est.), dose: 0.75 mg/kg/injection, schedule: Q07DX005 (ip), vehicle: other) 122 % of control; (endpoint: median tumor weight (est.), dose: 3.0 mg/kg/injection, schedule: Q07DX005 (ip), vehicle: other) 84 % of control.

On to `OCCN1CCN(CC/C=C2/c3ccccc3Sc3ccc(C(F)(F)F)cc32)CC1`, for which the T/C by setting is: under setting [5], 70 % of control; under setting [6], 107 % of control; under setting [7], 120 % of control; (endpoint: median tumor weight (est.), dose: 25.0 mg/kg/injection, schedule: Q07DX005 (ip), vehicle: saline) 101 % of control; under setting [8], 81 % of control.

`Nc1ncn(C2CC(O)C(CO)O2)c(=O)n1` (centres undefined): the T/C by setting is: (endpoint: median tumor weight (est.), dose: 0.37 mg/kg/injection, schedule: Q07DX005 (ip), vehicle: saline) 37 % of control; (endpoint: median tumor weight (est.), dose: 0.75 mg/kg/injection, schedule: Q07DX005 (ip), vehicle: saline) 25 % of control; (endpoint: median tumor weight (est.), dose: 1.5 mg/kg/injection, schedule: Q07DX005 (ip), vehicle: saline) 9 % of control; (endpoint: median tumor weight (est.), dose: 3.0 mg/kg/injection, schedule: Q07DX005 (ip), vehicle: saline) 10 % of control.

For the compound `COc1cc(C(C)(C)C)cc(OC)c1C(O)(c1c(OC)cc(C(C)(C)C)cc1OC)c1c(OC)cc(C(C)(C)C)cc1OC`, the T/C runs as follows: (endpoint: median tumor weight change, dose: 62.5 mg/kg/injection, schedule: Q01DX001 (ip), vehicle: saline with Tween-80) 102 % of control; (endpoint: median tumor weight change, dose: 125.0 mg/kg/injection, schedule: Q01DX001 (ip), vehicle: Klucel (hydroxypropylcellulose) (HPC)) 98 % of control; (endpoint: median tumor weight change, dose: 250.0 mg/kg/injection, schedule: Q01DX001 (ip), vehicle: Klucel (hydroxypropylcellulose) (HPC)) 62 % of control; (endpoint: median tumor weight change, dose: 250.0 mg/kg/injection, schedule: Q01DX001 (ip), vehicle: saline with Tween-80) 48 % of control and 70 % of control; (endpoint: median tumor weight change, dose: 500.0 mg/kg/injection, schedule: Q01DX001 (ip), vehicle: Klucel (hydroxypropylcellulose) (HPC)) 67 % of control; (endpoint: median tumor weight change, dose: 500.0 mg/kg/injection, schedule: Q01DX001 (ip), vehicle: saline with Tween-80) 37 % of control and 46 % of control. Moreover, the T/C (endpoint: median tumor weight change, dose: 1000.0 mg/kg/injection, schedule: Q01DX001 (ip), vehicle: saline with Tween-80) was 17 % of control.

As to `Nc1nc2nc[nH]c2c(=O)[nH]1`, the T/C (endpoint: median tumor weight (est.), dose: 25.0 mg/kg/injection, schedule: Q07DX005 (ip), vehicle: suspension in saline) is 73 % of control; the T/C (endpoint: median tumor weight (est.), dose: 50.0 mg/kg/injection, schedule: Q07DX005 (ip), vehicle: suspension in saline) is 73 % of control; the T/C (endpoint: median tumor weight (est.), dose: 100.0 mg/kg/injection, schedule: Q07DX005 (ip), vehicle: suspension in saline) was 69 % of control; the T/C (endpoint: median tumor weight (est.), dose: 200.0 mg/kg/injection, schedule: Q07DX005 (ip), vehicle: suspension in saline) was 73 % of control.
